The values below come from patent US20030185792A1, “Morphogen analogs of bone morphogenic proteins” (Curis, Inc., priority 1996, published 2003).

“Also recorded” adds a separate entry of the source. Bridge positions count the residues as written; N and C are the ends. Ends that are not written are not given here.

One experiment concerns ROS cells. Briefly: ROS cell based alkaline phosphatase bioassay. The arrangement: species or system rat. Particulars: for effect on OP-1 induced cell responsiveness (agonist/antagonist behaviour): peptide together with OP-1; for IC50: peptide together with OP-1 (1.33 nM), read-out: peptide concentration giving 50% inhibition of cellular responsiveness to OP-1; for effect on basal cell responsiveness (alkaline phosphatase activity): no OP-1. On the procedure:
In a first series of experiments, increasing concentrations of peptides F2-2 (FIG. 9A), F2-3 (FIG. 9B), Hn-2 (FIG. 9C) and Hc-2 (FIG. 9D) were added to ROS cells either alone (open bars) or in combination with 40 ng/ml soluble OP-1 (filled bars) and their effect on alkaline phosphatase activity measured. Soluble OP-1 is the form of OP-1 in which the pro-domain is still attached to the mature portion of OP-1 (see WO 94/03600). A basal alkaline phosphatase activity is shown by the line and represents the alkaline phosphatase activity of cells incubated in the absence of both soluble OP-1 and peptide.
(§1) Assay of peptides: The receptor-binding activities of OP-1 synthetic peptides were determined by a radio-ligand receptor assay using ^125I-labeled OP-1 as ligand, and an OP-1 receptor-enriched plasma membrane fraction of ROS cells. The assay is based on competition between radiolabeled OP-1 and unlabeled OP-1 or peptide for binding to membrane-bound receptor. A well characterized ROS cell based in vitro bio-assay was used to examine the effects of OP-1 peptides on basal as well as OP-1 induced cellular alkaline phosphatase activity.
i. ROS Cell Based Alkaline Phosphatase Assay: OP-1 synthetic peptides that bind OP-1 receptors are further analyzed by in vitro bioassay. This allows defining the role of OP-1 peptides at the receptor-binding site. Some of the OP-1 peptides that effectively interact with receptors could inhibit OP-1 induced target cell responsiveness, thereby acting as functional antagonists. Alternatively, they may mimic OP-1 functions inducing alkaline phosphatase activity in ROS cells. Creative BioMolecules has developed and fully validated ROS cell in vitro assay for OP-1. An assay procedure as described earlier is essentially followed to determine the biological activities of OP-1 peptides. In a typical experiment, rat Osteosarcoma (17/2.8) cells are plated in 96 well plates (3.0×10^4 cells/well) and incubated overnight at 37° C. in 5-6% CO2 incubator. Next day, the plates are examined to make sure that cells are healthy & confluent. Cells are treated with increasing concentrations of OP-1 standard (1-10,000 ng/ml) or OP-1 synthetic peptides (0.02-200 μM) alone or with OP-1 standard prepared in medium containing 1% FBS and incubated for 2 days at 37° C. in 5-6% CO2 incubator. The cellular content of alkaline phosphatase activity is determined by the method of Reddi and Huggins. Enzyme estimations are routinely carried out in 96 well plates. Following removal of culture medium, cells are washed with pre-warmed PBS (150 μl) and further incubated in 100 ul of pre-warmed 1% Triton X-100 for 30 minutes at 37 C. Plates are centrifuged for 10 minutes at full speed, and recovered samples (each 15 μl) are assayed for enzyme activity by adding 90 ul p-nitrophenyl phosphate (Sigma) as a substrate in 0.05 M glycine-NaOH buffer, pH 9.3 and incubating for 20 minutes at 37° C. The reaction is stopped by adding 75 μl of 0.2 N NaOH/well and absorbance at 405/490 nm is measured on a Dynatech MR 700 plate reader. Results are expressed as concentration of peptide inhibitor (with antagonist activity) required to give 50% inhibition of maximum response to OP-1 standard. On the other hand, the activities of peptides that stimulate cell responsiveness (with agonist activity) are expressed relative to OP-1 standard. FIG. 23 illustrates the dose-related effects of OP-1 preparations on stimulation of alkaline phosphatase activity as determined in ROS cell based in vitro assay.

In experiment [1] the test system is OP-1 receptor-enriched plasma membrane fraction of ROS cells. Briefly: Radioligand receptor assay: displacement of 125I-labeled OP-1 from ROS cell plasma membranes. The format is binding, rat. Particulars: for effect on binding of 125I-labeled OP-1 to the receptor: Example 3; for ability to displace 125I-labeled soluble OP-1 from ROS cell membranes: Example 2, FIGS. 10A and 10B. On the procedure: In a second series of experiments, the ability of unlabeled soluble OP-1 and unlabeled peptides F1-2, F2-2, F2-3, H-n2 and H-c2 to displace ^125I labeled soluble OP-1 from ROS cell membranes was measured. The activities of peptides F2-2 and F2-3 relative to soluble OP-1 are shown in FIG. 10A, and the activities of peptides Fi-2, H-n2 and H-c2 relative to soluble OP-1 are shown in FIG. 10B. OP-1 receptor-enriched plasma membranes of ROS cells were incubated for 20 hrs at 4° C. with ^125I-labeled soluble OP-1 and unlabeled peptide. Receptor bound material was separated from unbound material by centrifugation at 39,500×g. The resulting pellet was harvested and washed with 50 mM HEPES buffer, pH 7.4 containing 5 mM MgCl2 and 1 mM CaCl2 Radioactivity remaining in the pellet was determined by means of a gamma counter.
as §1
i. Radio-receptor Assay: The receptor-binding activities of various OP-1 synthetic peptides can be determined by an equilibrium displacement binding isotherm assay using ^125I-labeled OP-1 as ligand and OP-1 receptor-enriched plasma membrane fraction of ROS cells. Highly purified OP-1 can be radioiodinated to a specific activity of 70-78 μCi/ug by a modified procedure of lactoperoxidase method. The percent bindability of radioiodinated OP-1 to excess receptor is 30-37%. Plasma membranes enriched with OP-1 receptors from ROS cells can be isolated as is known in the art. […] In a typical assay, fixed amounts of ^125I-labeled sol. OP-1 (˜80,000 cpm) are incubated with fixed amount of receptor-enriched plasma membrane fraction in the presence (5 μg, for non-specific binding) or absence of excess unlabeled OP-1 (for total binding). Displacement curves are generated with increasing concentrations of OP-1 peptide (0.032-50 μM) or OP-1 standard preparation (5-2000 ng). The assay incubations are carried out in a reaction volume of 300 μl with shaking for 22 hrs. at 4° C. Separation of bound and free ^125I-labeled OP-1 is by centrifugation (39,500×g, 30 minutes). The supernatants are aspirated and pellets are washed before counting in a gamma counter (Packard Instr., Downers Grove, Ill.). The concentration of OP-1 peptide required to give 50% inhibition of total specific binding of ^125I-labeled OP-1 (ED50) is calculated from competitive data.
For orientation: In a radioligand displacement assay an active substance lowers the binding of a labelled ligand.

“F1-1: SEQ ID No. 5; cyclized peptide covering the complete finger 1 region of OP-1 (CELYVSFRDLGWQDWIIAPEGYAAYC; cyclized; listed as Homo sapiens)”: in the experiment with ROS cells (Example 3, peptide alone), the “peptide concentrations effective to inhibit basal cellular responsiveness” value lay in the range of 52 to 260 µM. In the experiment with ROS cells (Example 3), the “effect on OP-1 induced cell responsiveness (agonist/antagonist behaviour)” value (“effect … (agonist/antagonist behaviour)” for short) was “antagonists” and the IC50 was 20 µM. In addition, the “effect on binding of 125I-labeled OP-1 to the receptor” value (from here on “effect on binding”) in experiment [1] is recorded as “interfered”.
Consider “F1-2: SEQ ID No. 6; 15-residue finger 1 loop region peptide cyclized at the ends (CFRDLGWQDWIIAPC; cyclized; listed as Homo sapiens)”, for which, in the experiment on ROS cells (Example 3, peptide alone), the “effect on basal cell responsiveness (alkaline phosphatase activity)” value (“effect on basal cell responsiveness” below) is given as “weakly inhibiting”. Besides, in the experiment on ROS cells (Example 3), the “effect … (agonist/antagonist behaviour)” value is “relatively weak antagonist” and the IC50 was determined as 10 µM. The “effect … (agonist/antagonist behaviour)” value in the experiment on ROS cells (Example 3, listed as Fi-2) is reported as “antagonists”. Further, in experiment [1], the “ability to displace 125I-labeled soluble OP-1 from ROS cell membranes” value (“ability” below) was “little or no ability to displace” and the “effect on binding” value is “relatively weak activity”. Moreover, the “peptide concentration required to inhibit binding of 125I-labeled OP-1 to the receptor” value in experiment [1] (Example 3, FIG. 14) turned out to be 179 µM. The “effect on binding” value in experiment [1] (listed as Fi-2) is “interfered”.
As for “F2-1: SEQ ID No. 16; covers the entire finger 2 region of OP-1, cyclized close to the knot region (CLNAISVLYFDDSSNVILKKYRNMVVRC; disulfide 1-28 (inferred); listed as Homo sapiens)”, the “effect on basal cell responsiveness” value in the experiment on ROS cells (Example 3, peptide alone) is “effectively inhibited”. Moreover, in the experiment with ROS cells (Example 3), the “effect … (agonist/antagonist behaviour)” value was “effectively inhibited” and the IC50 turned out to be 8 µM.
Consider “F2-2: SEQ ID No. 17; 9 residues at the tip of finger 2 including 2 Asp residues, ends cyclized (CYFDDSSNVIC; cyclized; listed as Homo sapiens)”, for which the “behaviour in the alkaline phosphatase assay (agonist/antagonist)” value with ROS cells (Example 2, alone or with 40 ng/ml soluble OP-1) is reported as “weak OP-1 agonists”. In addition, the “effect on responsiveness to OP-1” value in the experiment with ROS cells (Example 3, at higher peptide concentrations (above 0.6-60 μM)) is given as “inhibited the responsiveness to OP-1”. For the same substance, the “potentiation of OP-1 induced cell responsiveness” value in the experiment with ROS cells (Example 3, peptide 0.6-60 μM, FIG. 16) was 20%. Besides, the “effect … (agonist/antagonist behaviour)” value in the experiment on ROS cells (Example 3) is “weak agonist; also recorded: potentiating the cell responsiveness to OP-1”. The “peptide concentrations at which OP-1 induced responsiveness is potentiated” value in the experiment on ROS cells (Example 3, with OP-1) fell in the range of 0.6 to 60 µM. For the same substance, in the experiment with ROS cells (peptide about 60 μM with 40 ng/ml soluble OP-1, FIG. 9A), the “increase of alkaline phosphatase activity relative to soluble OP-1 alone” value was “about 20%”. Besides, the “effect on basal alkaline phosphatase level” value in the experiment on ROS cells (peptide alone, about 60 μM, Example 2, FIG. 9A) is reported as “double”. In addition, in experiment [1], the “ability” value was “cannot completely displace” and the “effect on binding” value is “effectively competed”.
As for “F2-2c: SEQ ID No. 18; control cyclized peptide, 9 residues of F2-2 in reverse order (CIVNSSDDFYC; disulfide 1-11 (inferred); listed as Homo sapiens) [reference compound]”, in the experiment with ROS cells (Example 3, peptide alone), the “effect on basal cell responsiveness” value is reported as “no effect”. Further, the “effect … (agonist/antagonist behaviour)” value in the experiment with ROS cells (Example 3) is given as “no effect”. The “effect on binding” value in experiment [1] was “inactive”.
On to “H-1: SEQ ID No. 11; covers the whole Heel region, cyclized near the knot region (CAFPLNSYMNATNHAIVQTLVHFINPETVPKC; disulfide 1-32 (inferred); listed as Homo sapiens)”, for which the “effect on basal cell responsiveness” value with ROS cells (Example 3, peptide alone) is “effective only at very high concentrations”. In addition, the “effect … (agonist/antagonist behaviour)” value in the experiment with ROS cells (Example 3) is “weak antagonist; also recorded: antagonists”. In the experiment with ROS cells (Example 3, with OP-1), the “peptide concentrations required to inhibit the OP-1 induced cell response” value is 44 to 220 µM. Besides, the “effect on binding” value in experiment [1] is “interfered”.
Regarding “H-C2: SEQ ID No. 13; 7 residues (plus Cys) in the loop on the C-terminal end of the Heel helix (CCFINPETVCC; listed as Homo sapiens)”, in the experiment with ROS cells (Example 3, peptide alone), the “effect on basal cell responsiveness” value is recorded as “inhibiting the basal”. Besides, in the experiment with ROS cells (Example 3), the “effect … (agonist/antagonist behaviour)” value is listed as “antagonists” and the IC50 amounted to 5 µM. The “overall judgement of activity (lead peptides)” value with ROS cells (Example 3 summary, antagonistic (H-C2) and modulating (F2-3) activity) was “highly active”. Moreover, in the experiment with ROS cells (with 40 ng/ml soluble OP-1, FIG. 9D), the “peptide concentration at which the activity of soluble OP-1 is antagonized” value is listed as “greater than 5 μM”. In experiment [1], the “ability” value was “little or no ability to displace” and the “effect on binding” value was “interfered”. In addition, the “effect on binding” value in experiment [1] (peptide at 8 μM, FIG. 14) is given as “potentiated”.
For “H-N2: SEQ ID No. 12; 11 residues (plus Cys) in the loop on the N-terminal end of the Heel helix (CLNSYMNATNHAC; listed as Homo sapiens)”, the “effect on basal cell responsiveness” value with ROS cells (Example 3, peptide alone) is given as “not effective”. Moreover, the “effect … (agonist/antagonist behaviour)” value with ROS cells (Example 3) is recorded as “not effective”. Moreover, the “effect on alkaline phosphatase activity” value in the experiment with ROS cells (either alone or in combination with soluble OP-1, FIG. 9C) is reported as “little or no effect”. Moreover, in experiment [1], the “ability” value was “little or no ability to displace” and the “effect on binding” value is reported as “failed to inhibit”.
